From Sander's compilation of Henry's law constants (doi:10.1016/j.chroma.2014.03.040)

Assay: Henry solubility constant Hcp at 298.15 K (mol/(m3 Pa))
Details: reference: Kim and Kim (2014)

SMILES | Henry solubility constant Hcp
c1ccccc1 [benzene] | 0.0017
Cc1ccccc1 [methylbenzene] | 0.0015
Cc1ccccc1C [1,2-dimethylbenzene] | 0.0019
CC(C)CO [2-methyl-1-propanol] | 0.22
CC(=O)CC(C)C [4-methyl-2-pentanone] | 0.039
C=Cc1ccccc1 [ethenylbenzene] | 0.0027
CCCC=O [butanal] | 0.061
CC(C)CC=O [3-methylbutanal] | 0.021
CCCCC=O [pentanal] | 0.039
CCCCOC(C)=O [butyl ethanoate] | 0.024
Cc1ccc(C)cc1 [1,4-dimethylbenzene] | 0.0013
Cc1cccc(C)c1 [1,3-dimethylbenzene] | 0.0013
